# According to publication PMC12307812 (Nature Communications, 2025):
# Like-named read-outs stand apart in the source and are kept apart here.
# Legend:
# [1] = test system: pseudovirus bearing VSV-G; assay: organism not typed; type: cell-based; conditions: Calu-3; for inhibition at 0.00025 µM: concentration 0.25 nM; for inhibition at 0.0025 µM: concentration 2.5 nM; for inhibition at 0.025 µM: concentration 25 nM; for inhibition at 0.25 µM: concentration 250 nM; for inhibition at 2.5 µM: concentration 2500 nM; for inhibition at 25 µM: concentration 25000 nM
# [2] = test system: pseudovirus bearing S protein of HCoV-229E; assay: organism not typed; type: cell-based; conditions: for IC50: Calu-3, read-out: IC50 estimate, pseudovirus cell entry 229E-S; for inhibition at 0.00025 µM / inhibition at 0.0025 µM / inhibition at 0.025 µM / inhibition at 0.25 µM / inhibition at 2.5 µM / inhibition at 25 µM: Calu-3, read-out: mean inhibition
# [3] = target: T1, Recombinant Human TMPRSS2 (Homo sapiens, UniProt O15393); assay: TMPRSS2 biochemical assay (Boc-Gln-Ala-Arg-AMC fluorogenic substrate); conditions: for inhibition at 0.000677404 µM: concentration 0.677404 nM; for inhibition at 0.00203221 µM: concentration 2.03221 nM; for inhibition at 0.00609663 µM: concentration 6.09663 nM; for inhibition at 0.0182899 µM: concentration 18.2899 nM; for inhibition at 0.0548697 µM: concentration 54.8697 nM; for inhibition at 0.164609 µM: concentration 164.609 nM; for inhibition at 0.493827 µM: concentration 493.827 nM; for inhibition at 1.48148 µM: concentration 1481.48 nM; for inhibition at 4.44444 µM: concentration 4444.44 nM; for inhibition at 13.3333 µM: concentration 13333.3 nM; for inhibition at 40 µM: concentration 40000 nM
# T1 construct: human TMPRSS2 residues 106492, N-terminal 6x His-tag; 6x His-tag (N); purchased Cusabio CSB-YP023924HU; host or cells: yeast
# T1 sequence (O15393 106-492 limits assumed): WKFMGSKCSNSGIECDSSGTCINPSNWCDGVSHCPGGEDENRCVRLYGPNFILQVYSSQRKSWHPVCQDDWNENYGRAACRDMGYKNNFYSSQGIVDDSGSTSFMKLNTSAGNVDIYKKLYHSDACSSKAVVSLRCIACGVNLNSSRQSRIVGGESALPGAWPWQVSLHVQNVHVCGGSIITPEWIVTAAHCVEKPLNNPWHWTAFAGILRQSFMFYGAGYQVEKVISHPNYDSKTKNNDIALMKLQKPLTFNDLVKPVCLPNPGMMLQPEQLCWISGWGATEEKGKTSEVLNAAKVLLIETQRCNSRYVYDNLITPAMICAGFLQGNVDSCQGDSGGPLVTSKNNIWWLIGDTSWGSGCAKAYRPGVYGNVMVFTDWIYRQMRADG
# Procedure: Inhibitors of TMPRSS2 were tested using a high throughput activity assay. […] TMPRSS2 (5 µl, 0.018 mg/ml) in assay buffer (50 mM Tris pH 8, 150 mM NaCl, 0.01% Tween20) was dispensed to that, using a BioRAPTR (Beckman Coulter), for a total assay volume of 5 µl.
# After incubation at room temperature for 1 h, fluorescence was measured. […] Raw plate reads for each titration point were normalized relative to a positive control containing no enzyme (0% activity, full inhibition) and a negative control containing DMSO-only wells (100% activity, basal activity). Data normalization was performed using GraphPad Prism (GraphPad Software, San Diego, CA).
# We employed the curve fitting algorithm available in the SciPy package (version 1.10.1)[61] to derive the Hill slope and the IC50 value, along with their corresponding error estimates.
# [4] = test system: pseudovirus bearing S protein of MERS-CoV; assay: organism not typed; type: cell-based; conditions: for IC50: Calu-3, read-out: IC50 estimate, pseudovirus cell entry MERS-S; for inhibition at 0.00025 µM / inhibition at 0.0025 µM / inhibition at 0.025 µM / inhibition at 0.25 µM / inhibition at 2.5 µM / inhibition at 25 µM: Calu-3; for inhibition at 0.00025 µM: concentration 0.25 nM; for inhibition at 0.0025 µM: concentration 2.5 nM; for inhibition at 0.025 µM: concentration 25 nM; for inhibition at 0.25 µM: concentration 250 nM; for inhibition at 2.5 µM: concentration 2500 nM; for inhibition at 25 µM: concentration 25000 nM
# [5] = test system: pseudovirus bearing S protein of SARS-CoV-2 lineage EG.5.1; assay: organism not typed; type: cell-based; conditions: for inhibition at 0.00025 µM / inhibition at 0.0025 µM / inhibition at 0.025 µM / inhibition at 0.25 µM / inhibition at 2.5 µM / inhibition at 25 µM: Calu-3, EG.5.1; for inhibition at 0.00025 µM: concentration 0.25 nM; for inhibition at 0.0025 µM: concentration 2.5 nM; for inhibition at 0.025 µM: concentration 25 nM; for inhibition at 0.25 µM: concentration 250 nM; for inhibition at 2.5 µM: concentration 2500 nM; for inhibition at 25 µM: concentration 25000 nM
# [6] = test system: vesicular stomatitis virus (VSV); type: cell-based; conditions: for mean log10(PFU/ml): VSV
# [7] = test system: pseudovirus bearing S protein of SARS-CoV-2 lineage B.1.617.2; assay: organism not typed; type: cell-based; conditions: for inhibition at 0.00025 µM / inhibition at 0.0025 µM / inhibition at 0.025 µM / inhibition at 0.25 µM / inhibition at 2.5 µM / inhibition at 25 µM: Calu-3, B.1.617.2; for inhibition at 0.00025 µM: concentration 0.25 nM; for inhibition at 0.0025 µM: concentration 2.5 nM; for inhibition at 0.025 µM: concentration 25 nM; for inhibition at 0.25 µM: concentration 250 nM; for inhibition at 2.5 µM: concentration 2500 nM; for inhibition at 25 µM: concentration 25000 nM; for IC50: Calu-3 cells, read-out: IC50, pseudovirus cell entry B.1.617.2
# [8] = Calu-3 cells, Fig. 4g, read-out: IC50 estimate, pseudovirus cell entry EG.5.1
# [9] = Calu-3 cells, read-out: IC50, EG.5.1-S protein-driven Calu-3 cell entry
compound,measurement,setting,value
CC(C)(C)NC(=O)N1CCN(C(=O)N2C(=O)C(CCCNC(=N)N)C2C(=O)O)CC1 (centres unmarked) [BMS-262084],inhibition at 0.00025 µM,[1],2.19%
same,inhibition at 0.0025 µM,[1],1.17%
same,inhibition at 0.025 µM,[1],1.08%
same,inhibition at 0.25 µM,[1],0.456%
same,inhibition at 2.5 µM,[1],0.565%
same,inhibition at 25 µM,[1],-2.28%
same,IC50,[2],0.99 ± 0.209 µM
same,inhibition at 0.00025 µM,[2],0.992%
same,inhibition at 0.0025 µM,[2],8.96%
same,inhibition at 0.025 µM,[2],22%
same,inhibition at 0.25 µM,[2],42.2%
same,inhibition at 2.5 µM,[2],58.4%
same,inhibition at 25 µM,[2],72.2%
same,inhibition at 75.27 pM,[3]; concentration 0.0752671 nM,1.73%
same,inhibition at 0.000225801 µM,[3]; concentration 0.225801 nM,16.6%
same,inhibition at 0.000677404 µM,[3],22.3%
same,inhibition at 0.00203221 µM,[3],54.4%
same,inhibition at 0.00609663 µM,[3],77.8%
same,inhibition at 0.0182899 µM,[3],91.4%
same,inhibition at 0.0548697 µM,[3],94.8%
same,inhibition at 0.164609 µM,[3],99.3%
same,inhibition at 0.493827 µM,[3],97.2%
same,inhibition at 1.48148 µM,[3],99%
same,inhibition at 4.44444 µM,[3],98%
same,inhibition at 13.3333 µM,[3],98.8%
same,inhibition at 40 µM,[3],93.2%
same,IC50,"[3]; read-out: IC50, inhibition in TMPRSS2 biochemical assay",0.00182 µM
same,IC50,[4],0.101 ± 0.0242 µM
same,inhibition at 0.00025 µM,[4],0.787%
same,inhibition at 0.0025 µM,[4],-4.71%
same,inhibition at 0.025 µM,[4],29.1%
same,inhibition at 0.25 µM,[4],67.2%
same,inhibition at 2.5 µM,[4],89.3%
same,inhibition at 25 µM,[4],93%
same,inhibition at 0.00025 µM,[5],10.3%
same,inhibition at 0.0025 µM,[5],16.8%
same,inhibition at 0.025 µM,[5],26.9%
same,inhibition at 0.25 µM,[5],51.3%
same,inhibition at 2.5 µM,[5],58.1%
same,inhibition at 25 µM,[5],57.8%
same,"fold less efficient inhibition of EG.5.1-S entry compared to B.1-S, B.1.617.2-S or BA.2.86-S",[5]; Calu-3 cells,20–50 fold
same,IC50,[5]; [8],1.2 ± 0.763 µM
same,IC50,[5]; [9],1.2 µM
same,effect on VSV infection,[6],not affected
same,mean log10(PFU/ml),[6]; concentration 5 nM,9.0266 log10(PFU/ml)
same,mean log10(PFU/ml),[6]; concentration 50 nM,9.0323 log10(PFU/ml)
same,mean log10(PFU/ml),[6]; concentration 500 nM,9.005 log10(PFU/ml)
same,mean log10(PFU/ml),[6]; concentration 5000 nM,9 log10(PFU/ml)
same,mean log10(PFU/ml),[6]; concentration 50000 nM,9.006 log10(PFU/ml)
same,inhibition at 0.00025 µM,[7],-3.95%
same,inhibition at 0.0025 µM,[7],6%
same,inhibition at 0.025 µM,[7],32.3%
same,inhibition at 0.25 µM,[7],82.7%
same,inhibition at 2.5 µM,[7],96.1%
same,inhibition at 25 µM,[7],96.1%
same,IC50,[7],0.0525 µM
CN(C)C(=O)COC(=O)Cc1ccc(OC(=O)c2ccc(NC(=N)N)cc2)cc1 [camostat],inhibition at 0.00025 µM,[1],0.261%
same,inhibition at 0.0025 µM,[1],-1.2%
same,inhibition at 0.025 µM,[1],-0.393%
same,inhibition at 0.25 µM,[1],-0.191%
same,inhibition at 2.5 µM,[1],-0.407%
same,inhibition at 25 µM,[1],-1.53%
same,IC50,[2],2.01 ± 0.177 µM
same,inhibition at 0.00025 µM,[2],1.18%
same,inhibition at 0.0025 µM,[2],7.64%
same,inhibition at 0.025 µM,[2],11.6%
same,inhibition at 0.25 µM,[2],30.5%
same,inhibition at 2.5 µM,[2],52.3%
same,inhibition at 25 µM,[2],73.8%
same,inhibition at 0.000677404 µM,[3],13.8%
same,inhibition at 0.00203221 µM,[3],36.1%
same,inhibition at 0.00609663 µM,[3],68.3%
same,inhibition at 0.0182899 µM,[3],90.6%
same,inhibition at 0.0548697 µM,[3],102%
same,inhibition at 0.164609 µM,[3],103%
same,inhibition at 0.493827 µM,[3],105%
same,inhibition at 1.48148 µM,[3],105%
same,inhibition at 4.44444 µM,[3],104%
same,inhibition at 13.3333 µM,[3],104%
same,inhibition at 40 µM,[3],104%
same,IC50,[4],0.189 ± 0.0123 µM
same,inhibition at 0.00025 µM,[4],0.136%
same,inhibition at 0.0025 µM,[4],2.04%
same,inhibition at 0.025 µM,[4],13.3%
same,inhibition at 0.25 µM,[4],57.4%
same,inhibition at 2.5 µM,[4],89.2%
same,inhibition at 25 µM,[4],95.7%
same,inhibition at 0.00025 µM,[5],3.95%
same,inhibition at 0.0025 µM,[5],-5.66%
same,inhibition at 0.025 µM,[5],19.1%
same,inhibition at 0.25 µM,[5],34.3%
same,inhibition at 2.5 µM,[5],43.1%
same,inhibition at 25 µM,[5],52.7%
same,IC50,[5]; [8],8.56 ± 6.54 µM
same,IC50,[5]; [9],8.56 µM
same,mean log10(PFU/ml),[6]; concentration 5 nM,9.003 log10(PFU/ml)
same,mean log10(PFU/ml),[6]; concentration 50 nM,8.994 log10(PFU/ml)
same,mean log10(PFU/ml),[6]; concentration 500 nM,9.01 log10(PFU/ml)
same,mean log10(PFU/ml),[6]; concentration 5000 nM,9.013 log10(PFU/ml)
same,mean log10(PFU/ml),[6]; concentration 50000 nM,8.989 log10(PFU/ml)
same,inhibition at 0.00025 µM,[7],-0.882%
same,inhibition at 0.0025 µM,[7],3.07%
same,inhibition at 0.025 µM,[7],10.5%
same,inhibition at 0.25 µM,[7],57.9%
same,inhibition at 2.5 µM,[7],90.4%
same,inhibition at 25 µM,[7],96.4%
same,IC50,[7],0.191 µM
